Measurements as given in patent US5459257A, “Sulfated oligoglycoside acylate and antiviral agent containing the same as active ingredient” (priority 1993, dated 1995).

Assays:
HIV = test: anti-HIV activity, inhibition of HIV-induced cytopathicity in MT-4 cells (MTT method); assay type: cell-based; details: for EC50: HIV-infected MT-4 cells, MOI 0.01, 5 days, 37° C.; for S.I. (CC50/EC50): MT-4 cells, ratio of CC50 to EC50, 7200 min
Method: (§1) A test compound having various concentrations were placed in a 96-well microtiter plate along with HIV-infected MT-4 cells (2.5×10^4 /well, MOI (multiplicity of infection): 0.01) immediately after infection thereof. In order to ascertain the cytotoxicty of the test compound with respect to MT-4 cells, mock-infected (non-infected) cells were cultured in an identical manner along with the test compound of various concentrations. After incubating for 5 days at 37° C. in a CO2 atmosphere, the number of living cells were determined by using MTT method. The anti-HIV activity was evaluated with the method written by R. Pauwels, et al. (R. Pauwels, et al., J. Virol Methods, 20, 309 to 321 (1988)).
The anti-HIV activity is shown in terms of EC50 (50% effective concentration) that is the concentration of a compound which inhibits 50% of HIV-induced cytopathicity in MT-4 cells, and the cytotoxity is shown in terms of CC50 (cytotoxic concentration) that is the concentration of a compound which reduces 50% of viability of mock-infected MT-4 cells. Selectivity Index (S.I.) is expressed by the ratio of CC50 to EC50 (CC50 /EC50).

MT-4 cells = test: cytotoxicity in mock-infected MT-4 cells (MTT method); assay type: cell-based
Method: as §1, with “method.” for “method. The anti-HIV activity was evaluated with the method written by R. Pauwels, et al. (R. Pauwels, et al., J. Virol Methods, 20, 309 to 321 (1988)).”
Selectivity Index (S.I.) is expressed by the ratio of CC50 to EC50 (CC50 /EC50).

[1] = mock-infected MT-4 cells, 5 days, 37° C., 7200 min
[2] = mock-infected MT-4 cells, 5 days, 37° C.

**Q.** How did the EC50 (HIV) turn out when “Sulfated n-dodecyl O-benzoyl-β-D-laminaripentaoside [Compound 2]” was run?
**A.** 0.4 µg/mL

**Q.** What about the “S.I. (CC50/EC50)” value (HIV) of the same substance?
**A.** > 2,500

**Q.** What about the CC50 (MT-4 cells; [1]) of the same substance?
**A.** > 1,000 μg/ml

**Q.** Which results are given for “Sulfated 4-n-heptylphenyl O-benzoyl-β-D-galactosyl-(1→4)-β-D-galactosyl-(1→4)-β-D-glucoside [Compound 18]”?
**A.** EC50 (HIV): 14.5 µg/mL; S.I. (CC50/EC50) (HIV): 47; CC50 (MT-4 cells; [2]): 634 µg/mL

**Q.** Which results are given for “Sulfated dl-α-tocopheryl O-n-dodecanoyl-β-D-laminaripentaoside [Compound 39]”?
**A.** EC50 (HIV): 15.3 µg/mL; S.I. (CC50/EC50) (HIV): 38; CC50 (MT-4 cells; [1]): 586 µg/mL

**Q.** “Sulfated dl-α-tocopheryl O-n-octanoyl-β-D-laminaripentaoside [Compound 33]” was tested. Which EC50 (HIV) did it give?
**A.** 0.64 µg/mL

**Q.** And the “S.I. (CC50/EC50)” value (HIV)?
**A.** 998

**Q.** What about the CC50 (MT-4 cells; [1]) of the same substance?
**A.** 639 µg/mL

**Q.** “Sulfated dl-α-tocopheryl O-n-dodecanoyl-β-D-laminaripentaoside [Compound 37]” was tested. Which EC50 (HIV) did it give?
**A.** 25.1 µg/mL

**Q.** What about the “S.I. (CC50/EC50)” value (HIV) of the same substance?
**A.** 3

**Q.** And the CC50 (MT-4 cells; [1])?
**A.** 77.4 µg/mL

**Q.** How did the EC50 (HIV) turn out when “Sulfated dl-α-tocopheryl O-n-butyryl-β-D-laminaripentaoside [Compound 31]” was run?
**A.** 1.1 µg/mL

**Q.** What about the “S.I. (CC50/EC50)” value (HIV) of the same substance?
**A.** 195

**Q.** What about the CC50 (MT-4 cells; [1]) of the same substance?
**A.** 214 µg/mL

**Q.** With “Sulfated n-dodecyl O-4-fluorobenzoyl-β-D-laminaripentaoside [Compound 4]” as the substance, how does the EC50 (HIV) read?
**A.** 1.7 µg/mL

**Q.** And the “S.I. (CC50/EC50)” value (HIV)?
**A.** 509

**Q.** And the CC50 (MT-4 cells; [1])?
**A.** 866 µg/mL

**Q.** How did the EC50 (HIV) turn out when “Sulfated n-dodecyl O-4-fluorobenzoyl-β-D-laminaripentaoside [Compound 3]” was run?
**A.** 2.0 µg/mL

**Q.** And the “S.I. (CC50/EC50)” value (HIV)?
**A.** 482

**Q.** And the CC50 (MT-4 cells; human, mt-4 cells, 120 h)?
**A.** 964 µg/mL

**Q.** Which EC50 (HIV) does the source give for “Sulfated 4-n-octyloxyphenyl O-4-fluorobenzoyl-β-D-laminaripentaoside [Compound 12]” here?
**A.** 16.1 µg/mL

**Q.** And the “S.I. (CC50/EC50)” value (HIV)?
**A.** 33

**Q.** And the CC50 (MT-4 cells; [2])?
**A.** 530 µg/mL

**Q.** With “Sulfated dl-α-tocopheryl O-n-butyryl-β-D-laminaripentaoside [Compound 32]” as the substance, how does the EC50 (HIV) read?
**A.** 6.4 µg/mL

**Q.** And the “S.I. (CC50/EC50)” value (HIV)?
**A.** 18

**Q.** And the CC50 (MT-4 cells; [1])?
**A.** 115 µg/mL

**Q.** Which results are given for “Sulfated 4-n-octyloxyphenyl O-benzoyl-β-D-laminaripentaoside [Compound 11]”?
**A.** EC50 (HIV): 4.7 µg/mL; S.I. (CC50/EC50) (HIV): 119; CC50 (MT-4 cells; [2]): 557 µg/mL

**Q.** “Sulfated dl-α-tocopheryl O-n-octanoyl-β-D-laminaripentaoside [Compound 35]” was tested. Which EC50 (HIV) did it give?
**A.** 20.2 µg/mL

**Q.** And the “S.I. (CC50/EC50)” value (HIV)?
**A.** 26

**Q.** What about the CC50 (MT-4 cells; [1]) of the same substance?
**A.** 519 µg/mL

**Q.** How did the EC50 (HIV) turn out when “Sulfated dl-α-tocopheryl O-n-butyryl-β-D-galactosyl-(1→4)-β-D-galactosyl-(1→4)-β-D-glucoside [Compound 42]” was run?
**A.** 3.6 µg/mL

**Q.** What about the “S.I. (CC50/EC50)” value (HIV) of the same substance?
**A.** 174

**Q.** And the CC50 (MT-4 cells; [2])?
**A.** 627 µg/mL

**Q.** What does the source list for “Sulfated n-dodecyl O-4-fluorobenzoyl-β-D-laminaripentaoside [Compound 5]”?
**A.** EC50 (HIV): 1.3 µg/mL; S.I. (CC50/EC50) (HIV): 758; CC50 (MT-4 cells; [1]): 986 µg/mL

**Q.** How did the EC50 (HIV) turn out when “Sulfated dl-α-tocopheryl O-n-dodecanoyl-β-D-laminaripentaoside [Compound 38]” was run?
**A.** 18.7 µg/mL

**Q.** And the “S.I. (CC50/EC50)” value (HIV)?
**A.** 4

**Q.** What about the CC50 (MT-4 cells; [1]) of the same substance?
**A.** 81.1 µg/mL

**Q.** Which results are given for “Sulfated 4-n-octyloxyphenyl O-octanoyl-β-D-laminaripentaoside [Compound 26]”?
**A.** EC50 (HIV): 1.7 µg/mL; S.I. (CC50/EC50) (HIV): > 588; CC50 (MT-4 cells; [2]): > 1,000 μg/ml

**Q.** How did the EC50 (HIV) turn out when “Sulfated dl-α-tocopheryl O-n-butyryl-β-D-laminaripentaoside [Compound 30]” was run?
**A.** 0.59 µg/mL

**Q.** And the “S.I. (CC50/EC50)” value (HIV)?
**A.** 1,124

**Q.** What about the CC50 (MT-4 cells; [2]) of the same substance?
**A.** 663 µg/mL

**Q.** Which results are given for “Sulfated n-dodecyl O-2,4-difluorobenzoyl-β-D-laminaripentaoside [Compound 7]”?
**A.** EC50 (HIV): 2.1 µg/mL; S.I. (CC50/EC50) (HIV): > 476; CC50 (MT-4 cells; [2]): > 1,000 μg/ml

**Q.** With “Sulfated 4-t-octylphenyl O-n-octanoyl-β-D-laminaripentaoside [Compound 27]” as the substance, how does the EC50 (HIV) read?
**A.** 0.63 µg/mL

**Q.** What about the “S.I. (CC50/EC50)” value (HIV) of the same substance?
**A.** > 1,587

**Q.** What about the CC50 (MT-4 cells; human, mt-4 cells, 120 h) of the same substance?
**A.** > 1,000 μg/ml
